Laboratory results from US20120328605A1, “COMPOSITIONS AND USES” (priority 2010, published 2012).

How the values were obtained:
[1] = system: Lineage-CD11b+ monocytes; assay: Monocyte analysis and counting after adjuvant injection in mice; format: in vivo, C57BL/6 mice
Method: (§1) 24-Hours after injection of the TLR adjuvants, peripheral blood was drawn from C57BL/6 mice via cardiac puncture with lithium-heparin as anticoagulant. Red blood cell lysis was performed twice on pooled blood with Ammonium Chloride-based Buffer (Sigma, Steinheim, Germany) and cells were counted with the EasyCount™ System (Immunicon). […] Cells were finally washed three times and fixed for 15 min. with a 2% paraformaldehyde solution in PBS. Fluorescence minus one (FMO) controls were always included in the assays for fluorescent compensation setting. Samples were acquired on a flow cytometer (BD FACSCanto II) and data analyzed with the FACSDiva software (BD Biosciences). Monocytes were identified by their Side/Forward scatter properties and gated as CD3-/CD45R/B220-/Ly-6G-/NK1.1-(Lineage-)/CD11b+ cells. CD11b+ monocyte frequency was reported as a percentage of the total cells excluding debris.
as §1, with “24 hours” for “24-Hours”, “each immunomodulator,” for “the TLR adjuvants,”, “min” for “min.”, “monocytes” for “monocyte”

[2] = system: APPSwe/PS1 mice; assay: T-water maze; format: in vivo
Method: Five groups of APPSwe/PS1 mice received one a week for a period of 12 weeks the following treatment: • Gr1: APPSwe/PS1+NaCl 0.9% n(=20), i.p. injections • Gr4: APPSwe/PS1+CRX527 (20 μg/mouse, 130 μl, n=10), i.p. injections • Gr5: […] (50 μg/mouse, 130 μl, n=10), i.p. injections • Gr8 APPSwe/PS1+AS15 ( 1/10th of human dose, 50 μl, n=10), i.m. injections • Gr9: APPSwe/PS1+AS01B ( 1/10th of human dose, 50 μl, n=10), i.m. injections
Mice were tested during the “light on” phase of the day. Behavioral experimenter was blinded to the genetic and treatment status of animals. To assess hippocampal-dependent spatial learning and memory, mice were trained in the T-water maze task. In this paradigm, we evaluate the mouse's ability to remember the spatial location of submerged platform. The T-maze apparatus (length of stem, 64 cm; length of arms, 30 cm; width, 12 cm; height of walls, 16 cm) was made of clear fiberglass and filled with water (23±1° C.) at a height of 12 cm. A platform (11×11 cm) was placed at the end of the target arm and was submerged 1 cm below the surface. The acquisition phase allows to evaluate animals for left-right spatial learning. During the first two trials, platforms were placed on each arms of the maze to test the spontaneous turning preference of the mouse. After these two trials, the least chosen arm was reinforced by the escape platform. The mice were placed in the stem of the T-maze and choose to swim either left or right until they found the submerged platform and escape to it, to a maximum of 60 s. After reaching the platform, the mice remained on it for 20 s and then were immediately placed back in the maze. […] Repeated trials were presented on the same day up to a maximum of 48 trials. A rest period of at least 10-15 min intervened between each block of 10 trials. A mouse was considered to have learned the task when it made no errors in a block of five consecutive trials. […] The number of trials to reach the criterion (five of five correct choices made on consecutive trials) was measured as well as the latency to find the escape platform.

[3] = single i.m. injection, 24 hrs, FIG. 12

CCCCCCCCCCC[C@H](CC(=O)N[C@H]1[C@H](OC[C@H](NC(=O)C[C@@H](CCCCCCCCCCC)OCCCCCCCCCC)C(=O)O)O[C@H](CO)[C@@H](OP(=O)(O)O)[C@@H]1OC(=O)C[C@@H](CCCCCCCCCCC)OCCCCCCCCCC)OCCCCCCCCCC [CRX601]
circulating monocytes numbers following injection ([1]; i.m. or i.p. routes, doses of b403, FIG. 9): Upregulation of circulating monocytes numbers
dose enough to trigger an increase of the monocyte count compared to PBS [1, 3]: 1 µg
dose of maximum response (monocyte count) [1, 3]: 10 µg
effect on monocyte count at 20 μg dose ([1]; single i.m. injection, FIG. 12): down modulated
behaviour as assessed by T water maze testing ([2]; Example 21: twelve weekly injections, CRX527, CRX601 20 μg i.p., 3D MPL 50 μg i.p., AS01B 1/10th human dose i.m., FIG. 24): significant improvements in behaviour
cognitive functions, T-water maze vs PBS-treated control group ([2]; Example 22, i.m. 12× weekly: CRX601 2 μg, CRX601 2 ug in AS03, 3D MPL 5 ug, AS01B 1/10 human dose, unpaired t-tests, FIG. 27A): significant improvement of their cognitive functions
